In patent US5473039A, “Polypeptide analogs of apolipoprotein E, diagnostic systems and methods using the analogs” (The Scripps Research Institute, priority 1991, dated 1995):
Ends that are not written are not given here.

Key:
[1] = system: Human peripheral blood mononuclear (PBM) cells; assay: PHA-stimulated PBM cell proliferation in serum-free CFBI medium; assay type: cell-based; settings: for IC50: read-out: Average Specific Activity (peptide concentration that causes a 50% reduction in activity)
Method: In these studies, human peripheral blood mononuclear (PBM) cells were isolated and assayed for phytohemagglutinin (PHA)-stimulated proliferation as described by Pepe et al (J. Immunol., 136:3716-3723, 1986) except that the cells were resuspended and cultured in a serum-free and protein-free CFBI medium as described by Shive et al, Proc. Natl. Acad. Sci. […] After 48 h the cultures were pulsed for 18 h with […] of [^3 H]-methylthymidine and harvested onto glass fiber filters. Radioactivity of the filters was counted in a Beckman liquid scintillation counter. […] The average biological activity of each polypeptide for inhibiting lymphocyte […] proliferation is shown in Table 6, and is expressed as an average specific activity, which is the peptide concentration that causes a 50% reduction in activity.

fibroblast LDL receptors = molecular target: T1, fibroblast LDL receptors (Homo sapiens, UniProt P01130); assay: 125I-LDL binding to fibroblasts; settings: for effect of substitution on ability to inhibit binding of 125I-LDL to fibroblasts: substitution at both positions of tandem peptide
T1 construct: transferred to DMEM medium with 10% lipoprotein-depleted serum (LPDS) for 48 hr to upregulate the LDL receptors; endogenous in cells; host or cells: normal fibroblasts
T1 sequence (P01130 22-860): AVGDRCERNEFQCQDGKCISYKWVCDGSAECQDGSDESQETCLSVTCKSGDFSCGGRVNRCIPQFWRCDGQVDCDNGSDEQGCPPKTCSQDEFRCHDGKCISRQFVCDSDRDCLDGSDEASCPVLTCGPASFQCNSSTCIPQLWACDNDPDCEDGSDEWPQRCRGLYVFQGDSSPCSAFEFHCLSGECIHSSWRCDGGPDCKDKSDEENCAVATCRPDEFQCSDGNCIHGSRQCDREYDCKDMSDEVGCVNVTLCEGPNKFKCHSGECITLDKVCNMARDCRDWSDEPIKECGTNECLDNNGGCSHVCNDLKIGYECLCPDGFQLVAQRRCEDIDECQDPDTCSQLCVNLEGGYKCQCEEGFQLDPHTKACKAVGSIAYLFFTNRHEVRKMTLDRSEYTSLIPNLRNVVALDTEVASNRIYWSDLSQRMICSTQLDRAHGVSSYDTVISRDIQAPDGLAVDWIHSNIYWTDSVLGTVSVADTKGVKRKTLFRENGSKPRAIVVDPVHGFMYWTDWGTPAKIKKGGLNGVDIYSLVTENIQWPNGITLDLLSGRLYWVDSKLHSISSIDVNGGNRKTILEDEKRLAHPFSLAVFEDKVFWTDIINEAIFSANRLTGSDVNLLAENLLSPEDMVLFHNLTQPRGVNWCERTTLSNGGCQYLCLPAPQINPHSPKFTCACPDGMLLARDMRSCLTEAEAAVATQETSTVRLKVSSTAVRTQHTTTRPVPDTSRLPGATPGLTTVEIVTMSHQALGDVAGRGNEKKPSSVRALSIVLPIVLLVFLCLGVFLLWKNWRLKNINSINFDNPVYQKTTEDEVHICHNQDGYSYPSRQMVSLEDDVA
Source text: The role of specific amino acids within residues 141-155 of intact apo E has been studied by Lalazar et al., J. Biol. Chem., 263:3542 (1988) with human apo E variants containing single amino acid substitutions. The variants were produced in a bacterial expression system complexed with the phospholipid, dimyristoylphosphatidylcholine (DMPC) and tested for their ability to bind to fibroblast LDL receptors. Lalazar et al., J. Biol. Chem., 263:3542 (1988). To confirm that the tandem peptide was bound by the LDL receptor and to identify amino acids within this peptide that were critical for binding, three tandem peptides were prepared as described in Example 1 that contained the same amino acid substitutions at both positions in the tandem sequence. The changes included substitutions of the basic amino acids Lys 143 to Ala, Arg 150 to Ala, and Leu 144 with an alpha helix disrupting amino acid, Pro. ^125 I-LDL at a specific activity of 700-900 cpm/ng (>99% precipitable by 10% TCA) was used for the binding assay as described in Example 9. Normal fibroblasts were plated in 16 mm culture dishes, grown for 72-96 hr in DMEM medium with 10% fetal bovine serum (FBS) and then transferred to DMEM medium with 10% lipoprotein-depleted serum (LPDS) for 48 hr to upregulate the LDL receptors. The amount of ^125 I-LDL bound per well was normalized to the protein content of each well, which was measured with the Bio-Rad protein assay reagent using bovine serum albumin (BSA) as a standard.

LDL receptor = LDL receptor (Homo sapiens, UniProt P01130); assay: fibroblast 125I-LDL degradation; assay type: cell-based; set-up: transferred to DMEM medium with 10% lipoprotein-depleted serum (LPDS) for 48 hr to upregulate the LDL receptors; endogenous in cells; host or cells: normal fibroblasts; settings: molar basis
Sequence of LDL receptor (P01130 22-860): as above
Method: A trimer of the p141-155 peptide, p(141-155)3, was synthesized as in Example 1 and its activity compared with p(141-155) (monomeric) and with p(141-155)2 (dimeric) peptide. Normal fibroblasts were plated in wells of a 96-well culture plate and grown for 96 hr in DMEM medium with 10% FBS. The cells were transferred to DMEM medium with 10% LPDS for 48 hr to up regulate the LDL receptors. The LDL degradation assay was performed according to Example 9 with 2 μg/ml of ^125 I-LDL (300-500 cpm/ng) in 0.2 ml/well in DMEM medium with 10% LPDS and incubated for 5 hr at 37° C. The supernatants removed from the wells were extracted with 10% TCA. The TCA soluble counts were normalized to protein content per well as measured by the Bio-Rad protein assay.

[2] = system: Human peripheral blood mononuclear (PBM) cells; assay: PHA-stimulated lymphocyte proliferation (3H-thymidine uptake); assay type: cell-based; settings: for ED50 or dose of peptide required to inhibit lymphocyte proliferation 50%: Example 17
Source text: A lymphocyte cell culture system was used to examine the ability of various polypeptides and conjugates to mimic the ability of Apo E to inhibit lymphocyte differentiation as evidence by proliferation.
Human peripheral blood mononuclear (PBM) cells are isolated from whole blood on a Ficoll-Hypaque gradient. The collected PBMs are washed three times with fresh medium (RPMI-1640 plus 5% fetal bovine serum, glutamine, penicillin, streptomycin and HEPES buffer). After washing, the cells are counted and set at a density of 1×10^5 /ml. For culture, 0.2 ml of the cells are plated per well of a 96-well microtiter plate. The peptide or conjugate is added to the wells in a 50 ul volume that can be either filter or UV sterilized. The typical timing for this experiment is to expose the cells to the Apo E polypeptide or self-conjugate over night. PHA, the mitogen that stimulates lymphocyte growth and proliferation, is added the next day. Forty-eight hours after the addition of PHA, 1 uCi of ^3 H-thymidine is added per well in a 1 ul volume and 18-24 hours later the cells are harvested on a mash. The mash cell harvester functions to collect the cells on filter paper where they are washed with buffer to remove free ^3 H-thymidine. The filter papers are dried, put into scintillation vials with scintillation cocktail and the B emissions obtained. Each data point collected represents the average thymidine uptake in four wells, and the standard error was less than 10% for all data points.
Various concentrations of various Apo E peptide were added to cultures that contained 8×10^5 peripheral blood mononuclear cells per ml. The cells were cultured at 37C and RPMI with 5% serum. All cells were exposed to PHA at 24 hours, labeled with 3H-thymidine at 72 hours and harvested at 90 hours. The counts per minute (cpm) of 3H-thymidine in the harvested cells was measured, and the data are expressed as the mean of four wells per treatment as a measure of thymidine uptake (x 1000 cpm). The standard deviation was less than 10% for all means.

[3] = system: ovarian theca/interstitial cells; assay: ovarian androgen (androstenedione) production, LH-stimulated cultures; assay type: cell-based, rats; settings: non-conjugated, monomeric form
Source text: The cell system used to examine the effect of various peptides and conjugates on ovarian androgen production was that described by Curtiss et al., J. Biol. Chem., 263:10965, (1988). Briefly, hypophysectomized (pituitary removed) immature female rats are sacrificed by cervical dislocation. The ovaries taken from the rats were trimmed free of fat and other non-ovarian tissues, cut into approximately six to eight pieces per ovary and dissociated in a solution of collagenase Dnaase which degrades the connective tissue releasing cell clusters. Approximately one to two hours of 37C incubation is required to dissociate the tissue. The cells were washed three times with fresh McCoy's 5A modified medium supplemented with glutamine and penicillin/streptomycin. No serum was added to this medium. The cells were cultured over night in 10 ml of medium in a T-25 flask to allow the non-steroidogenic cells to adhere. The next day non-adherent cells were recovered, washed three times with fresh media, counted and plated at a density of 1×10^3/ ml aliquotting 0.2 ml per well of a 96-well microtiter plate. All media in the experiment contains luteinizing hormone (LH) at 4 ng/ml and human high density lipoprotein (HDL) at 300 μg protein/mi. Monomeric peptides, peptide-BSA conjugates and self-conjugated peptide preparations at various concentrations (0.2 to 50 μg/ml) were added to the cells. The cells were then cultured for 48 hours at 37C, the supernatants were recovered, transferred to a clean 96-well microtiter plate and kept at -20C until the concentrations of androstenedione and progesterone were measured by radioimmunoassay. Each data point represents the average of measured androstenedione concentrations in four wells per treatment, and the standard error was less than 10% for all data points.
The ability of tandem Apo E peptide p(141-155)2 and self-conjugates of this peptide to affect ovarian androgen production was examined using the assay described in Example 4. […] After 48 hours of culture, the supernatants were collected, the androstenedione concentration measured by radioimmunoassay. […]

LRALRKRLLRDADDLLRALRKRLLRDADD [p(K143 --A)2]
peptide concentration above which uptake of tritiated thymidine / lymphocyte proliferation was inhibited [1]: above 4 uM | IC50 [1]: 5.6 ± 1.7 µM | effect of substitution on ability to inhibit binding of 125I-LDL to fibroblasts (fibroblast LDL receptors): smallest effect

LRKLRKRLLADADDLLRKLRKRLLADADD [p(K150 --A)2]
peptide concentration above which uptake of tritiated thymidine / lymphocyte proliferation was inhibited [1]: above 4 uM | IC50 [1]: 7.5 ± 3 µM | effect of substitution on ability to inhibit binding of 125I-LDL to fibroblasts (fibroblast LDL receptors): without significant alterations in the biological activity

LRKLRKRLLRDADDLLRKLRKRLLRDADD-LRKLRKRLLRDADDL [p(141-155)3]
effectiveness in inhibiting fibroblast 125I-LDL degradation relative to the dimeric peptide (LDL receptor): 15 times | ED50 or dose of peptide required to inhibit lymphocyte proliferation 50% [2]: 7 µM

LRKPRKRLLRDADDLLRKPRKRLLRDADDL [144 leu--pro, (LRKPRKRLLRDADDL)2]
activity in inhibiting 125I-LDL binding to fibroblasts (fibroblast LDL receptors; at 60 μM): no activity

RGLSAIRERL [p172-182, reference compound]
effect on androgen secretion [3]: no effect

Self-conjugated apo AI95-105: self-conjugated control peptide of apo AI residues 95-105 (AKVQPYLDDFQ; also: self-conjugated; UniProt P02647 119-129, looked up, fragment) [reference compound]
3H-Thymidine Uptake (cpm ± SD), With Washing ([2]; 40 μg/ml, cells washed three times at 24 hr prior to PHA): 64,524 ± 4,200 cpm | 3H-Thymidine Uptake (cpm ± SD), No Washing ([2]; 40 μg/ml, no washing): 83,480 ± 4,027 cpm

Y(LRKLRKRLLRDADDL)4 [Tetramer]
inhibitory activity relative to the dimer ([1]; molar basis): twice | IC50 [1]: 2.8 ± 1.3 µM | ED50 or dose of peptide required to inhibit lymphocyte proliferation 50% [2]: 1.2 µM
